Laboratory results as given in publication PMC11542736 (Cell reports. Physical science, 2024).

Target: TrpR^WT (Escherichia coli, UniProt P0A881)
Assay: Ptrp-GFP reporter, flow cytometry
Type: cell-based
Conditions: 1 mM ligand, E. coli Nissle 1917 trpR knockout, 37 °C, 8 h; derepression

## O=C(O)Cc1c[nH]c2ccccc12 [IAA, indole-3-acetic acid]
  Ptrp-GFP reporter, flow cytometry: IPA, IAA, and IAld
